Assay results published in US8663473B2, “Digestion of biosolids in wastewater” (BCR Environmental Corporation, priority 2009, dated 2014).

Tests used:
fecal coliform bacteria = test: Secondary sludge full-scale test: fecal coliform reduction at varying dose rates of chlorine dioxide; assay type: cell-based; conditions: for Fecal coliform: sludge, 10 minutes contact time
Procedure: Treatment of non-digested wastewater sludge with chlorine dioxide allows the material to meet Class B pathogen reduction requirements prior to digestion by reducing the fecal coliform concentrations to levels much lower than the Class B standard (<2,000,000 fecal coliform bacteria) with less than 15 minutes contact time. The resulting biosolids cake has no odor.
In this test, chlorine dioxide was generated on-site, and was injected (at varying concentrations) into a 100 gpm sludge flow passing through a 4 inch diameter pipe. The pipe length was sufficient to allow 10 minutes of contact time between the sludge and the chlorine dioxide prior to dewatering the material.

[1] = tested on: Waste activated sludge (WAS); test: WAS solubilization by chlorine dioxide: soluble COD, NH4 and PO4 release over contact time; conditions: for soluble COD concentration: contact time 24 h, WAS approx. 7 g/L solids
Procedure: Waste activated sludge (WAS) was obtained from a local municipal WWTP which removes cBOD only and uses a pure oxygen system. In order to achieve similar experiment conditions and be consistent with the previous pilot experiment, the solids concentration was adjusted to approximately 7 g/L. Three digesters were set up and treated with chlorine dioxide dosages of 100, 150 and 200 mg/L respectively. The digesters were operated for 24 hours. Samples were taken at time intervals of 10 min, 1 h, 6 h, 12 h and 24 h to represent different contact time.
This confirmed that chlorine dioxide contact time is the key factor for WAS solubilization. The increased soluble COD concentration can be expressed as 10-11% of TCOD which is quite significant. It was also observed that soluble COD concentration at contacting time of 6 hr was approximately 55-66% of the soluble COD at time 24 hrs. […] The increase of soluble COD corresponded to the volatile solids destruction of 4-6% with different chlorine dioxide treatment dosage.
This is considered insignificant. The PO4 increase was much higher and equaled 16 to 28.3 mg P/L after 24 h. Higher phosphorus than nitrogen release can be attributed to the chlorine dioxide treatment which breaks down the cell walls resulting in the release of unbound orthophosphate PO4—P. The nitrogen in the cells is in the form of organic nitrogen (amino acids) and enzymes are required to convert organic nitrogen to ammonia nitrogen. The low pH resulting from the chlorine dioxide treatment may have deactivated the enzyme activity, therefore no/insignificant NH4—N increase was detected.

anaerobic digester = test: Methane production in anaerobic digestion of chlorine dioxide pre-treated sludge
Procedure: Treatment of non-digested wastewater sludge with chlorine dioxide to solubilized the sludge and make nutrients bio-available and then feeding this material into an established anaerobic digester once the chlorine dioxide residual has been reduced improves gas (methane) production in an anaerobic digester. A generally accepted estimate for methane production at 35° C. is 0.25 kg methane per kg COD consumed. One kmol of methane is equivalent with a mass of 16 kg. Per definition, the COD equivalent of 1 kmol of methane is the mass of the amount of oxygen required for complete oxidation according to the formula: CH4+2O2→CO2+2H2O The mass of the 2 O2 is 2 kmol of oxygen or 64 kg. Thus 64 kg Oxygen Demand is equivalent with 16 kg of methane, or 1 kg of oxygen demand (COD) is equivalent with 16/64=0.25 kg methane.
This increase in soluble COD represents 10-11% of the total COD concentration of the sludge, and represents a 2000% increase in soluble COD. The inventors believe that the higher the s-COD the higher capacity for methane production. The resulting increase in methane production as a result of this enhancement of anaerobic digestion has been measured as a greater than 50% increase utilizing this method, and is expected to be in the range of 100% or more over non-pretreated WAS. […]

[O][Cl+][O-] [chlorine dioxide]
fecal coliform concentrations relative to Class B standard (fecal coliform bacteria; non-digested wastewater sludge, less than 15 minutes contact time): < 2,000,000 | Fecal coliform (fecal coliform bacteria; dose rate ClO2 32 mg/L): 3.32 × 10^5 MPN/g | Fecal coliform (fecal coliform bacteria; dose rate ClO2 48 mg/L): 123,000 MPN/g | Fecal coliform (fecal coliform bacteria; dose rate ClO2 64 mg/L): 1,800 MPN/g | Fecal coliform (fecal coliform bacteria; dose rate ClO2 80 mg/L): BDL | Fecal coliform (fecal coliform bacteria; dose rate ClO2 96 mg/L): BDL | Fecal coliform (fecal coliform bacteria; dose rate ClO2 128 mg/L): BDL | Fecal coliform (fecal coliform bacteria; dose rate ClO2 160 mg/L): BDL* | NH4 increase ([1]; all chlorine dioxide treatments): 3-5.2 mg N/L | soluble COD concentration ([1]; chlorine dioxide dosage 100 mg/L): 913 mg/L | soluble COD concentration ([1]; chlorine dioxide dosage 150 mg/L): 984 mg/L | soluble COD concentration ([1]; chlorine dioxide dosage 200 mg/L): 965 mg/L | volatile solids destruction ([1]; different chlorine dioxide treatment dosages): 4-6% | soluble COD at contact time 6 hr as % of soluble COD at 24 hrs ([1]; dosages 100-200 mg/L): 55-66% | increase in soluble COD ([1]; dosages 100-200 mg/L, 24 h): 2000% | increased soluble COD expressed as % of total COD (TCOD) ([1]; dosages 100-200 mg/L, 24 h): 10-11% | expected increase in methane production (anaerobic digester; over non-pretreated WAS, expected): ≥ 100% | increase in methane production (anaerobic digester; versus non-pretreated WAS): greater than 50%
